The text below walks through data of ChEMBL document CHEMBL1144057, “Guiaflavine, a new bisindole quaternary alkaloid from the stem bark of Strychnos guianensis” (J Nat Prod, 1999).

The test system of the data set is Mus musculus. Nature of the data set: Toxicity in ip dosed NMRI mouse. The format is organism-based. The settings on record: in vivo.

Structures are written as SMILES.

As for `CCc1c[n+]2c(cc1C1=CN3c4ccccc4[C@@]45CC[N+]6(C)CC7=CCO[C@@H]1[C@@H]([C@H]34)[C@H]7C[C@@H]56)-c1[nH]c3cccc(OC)c3c1CC2.[Cl-].[Cl-]` (stereo partly specified) [GUIAFLAVINE], the LD100 is 100 mg/kg.
